Activity calls are given as the source filed them.
Assays:
[1] = target: T1, Dual specificity protein phosphatase 6 (Rattus norvegicus, UniProt Q64346); format: functional
T1 sequence (Q64346 whole entry): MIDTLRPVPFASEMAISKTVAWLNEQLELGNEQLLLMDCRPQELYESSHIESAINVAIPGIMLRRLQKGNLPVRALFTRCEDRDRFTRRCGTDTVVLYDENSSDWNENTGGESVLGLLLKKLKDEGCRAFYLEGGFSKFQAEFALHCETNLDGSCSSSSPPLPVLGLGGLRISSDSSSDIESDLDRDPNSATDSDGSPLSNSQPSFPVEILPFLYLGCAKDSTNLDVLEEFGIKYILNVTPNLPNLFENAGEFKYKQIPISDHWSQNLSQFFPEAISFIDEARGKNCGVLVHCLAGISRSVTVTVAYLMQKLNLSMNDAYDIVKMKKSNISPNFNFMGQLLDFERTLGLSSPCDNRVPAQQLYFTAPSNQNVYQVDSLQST

[2] = target: T2, Tyrosine-protein phosphatase non-receptor type 7 (Homo sapiens, UniProt P35236); format: functional
T2 sequence (P35236 whole entry): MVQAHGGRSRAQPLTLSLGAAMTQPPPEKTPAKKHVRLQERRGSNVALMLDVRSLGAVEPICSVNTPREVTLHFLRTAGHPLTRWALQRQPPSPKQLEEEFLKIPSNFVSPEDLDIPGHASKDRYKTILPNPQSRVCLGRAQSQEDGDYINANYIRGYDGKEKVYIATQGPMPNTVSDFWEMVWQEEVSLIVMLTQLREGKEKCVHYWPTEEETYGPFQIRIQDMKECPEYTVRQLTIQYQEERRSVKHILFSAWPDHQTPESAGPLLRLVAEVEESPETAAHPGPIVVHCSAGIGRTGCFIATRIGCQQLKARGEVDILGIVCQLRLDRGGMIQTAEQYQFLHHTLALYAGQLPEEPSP

[3] = target: Glyceraldehyde-3-phosphate dehydrogenase (Homo sapiens, UniProt P04406)
Glyceraldehyde-3-phosphate dehydrogenase, sequence (P04406 whole entry): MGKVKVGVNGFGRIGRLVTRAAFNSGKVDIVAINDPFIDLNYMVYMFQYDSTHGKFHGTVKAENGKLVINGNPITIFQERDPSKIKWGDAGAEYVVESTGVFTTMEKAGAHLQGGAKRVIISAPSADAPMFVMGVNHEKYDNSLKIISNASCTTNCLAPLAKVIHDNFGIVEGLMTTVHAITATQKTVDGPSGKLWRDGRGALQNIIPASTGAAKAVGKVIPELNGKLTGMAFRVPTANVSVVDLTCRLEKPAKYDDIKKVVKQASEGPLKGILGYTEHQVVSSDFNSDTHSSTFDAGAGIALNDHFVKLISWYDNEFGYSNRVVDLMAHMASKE

[4] = target: T1, Dual specificity protein phosphatase 6
[5] = target: T3, SUMO-activating enzyme (Homo sapiens, UniProt Q9UBT2); assay: SUMOylation inhibitor hit validation, confirmation, SUMOylation inhibitor project, biochemical, AlphaScreen (AID 2018); format: functional
T3 sequence (Q9UBE0 whole entry): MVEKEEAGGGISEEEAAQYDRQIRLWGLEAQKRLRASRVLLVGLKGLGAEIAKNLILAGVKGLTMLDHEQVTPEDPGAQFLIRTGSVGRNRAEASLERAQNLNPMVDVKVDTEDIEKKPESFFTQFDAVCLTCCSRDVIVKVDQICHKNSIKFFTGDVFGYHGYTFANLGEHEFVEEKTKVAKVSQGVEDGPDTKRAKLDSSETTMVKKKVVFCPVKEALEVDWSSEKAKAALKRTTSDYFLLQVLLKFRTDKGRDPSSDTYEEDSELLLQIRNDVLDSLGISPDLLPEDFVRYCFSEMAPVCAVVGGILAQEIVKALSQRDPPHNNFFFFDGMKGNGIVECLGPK
T3 sequence (Q9UBT2 whole entry): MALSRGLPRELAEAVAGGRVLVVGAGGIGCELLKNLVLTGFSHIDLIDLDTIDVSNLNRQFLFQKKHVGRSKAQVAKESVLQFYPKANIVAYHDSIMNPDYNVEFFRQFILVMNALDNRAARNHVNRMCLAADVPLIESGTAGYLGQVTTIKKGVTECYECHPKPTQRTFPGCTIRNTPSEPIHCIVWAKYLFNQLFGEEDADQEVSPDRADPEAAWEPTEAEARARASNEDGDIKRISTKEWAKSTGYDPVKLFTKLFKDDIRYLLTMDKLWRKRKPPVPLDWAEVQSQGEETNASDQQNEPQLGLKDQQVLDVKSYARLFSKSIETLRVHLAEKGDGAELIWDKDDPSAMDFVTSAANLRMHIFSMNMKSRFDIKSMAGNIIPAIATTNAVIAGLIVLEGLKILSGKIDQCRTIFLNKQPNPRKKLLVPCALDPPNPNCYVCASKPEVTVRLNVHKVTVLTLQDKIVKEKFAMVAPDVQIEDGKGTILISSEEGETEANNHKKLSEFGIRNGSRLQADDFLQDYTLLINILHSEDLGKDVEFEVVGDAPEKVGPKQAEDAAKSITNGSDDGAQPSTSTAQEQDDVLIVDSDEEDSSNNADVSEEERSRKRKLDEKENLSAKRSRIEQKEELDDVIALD

[6] = target: Intestinal-type alkaline phosphatase (Homo sapiens, UniProt P09923); assay: inhibition of human intestinal alkaline phosphatase – biochemical, dose response (AID 488876); format: functional
[7] = target: Large T antigen (Simian virus 40, UniProt P03070); format: functional, Betapolyomavirus macacae;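 note: Confirmatory-stage PubChem screen for compounds that inhibit SV40 T antigen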
[8] = target: Intestinal-type alkaline phosphatase (Mus musculus, UniProt P24822); assay: PubChem AID 488785; format: functional
[9] = target: T4, Alkaline phosphatase, tissue-nonspecific isozyme (Homo sapiens, UniProt P05186); assay: TNAP enzyme inhibition by screening hits, dose response, selectivity assay for mouse IAP inhibitor project, biochemical, human TNAP, uHTS hits (AID 488906); format: functional
T4 sequence (P05186 whole entry): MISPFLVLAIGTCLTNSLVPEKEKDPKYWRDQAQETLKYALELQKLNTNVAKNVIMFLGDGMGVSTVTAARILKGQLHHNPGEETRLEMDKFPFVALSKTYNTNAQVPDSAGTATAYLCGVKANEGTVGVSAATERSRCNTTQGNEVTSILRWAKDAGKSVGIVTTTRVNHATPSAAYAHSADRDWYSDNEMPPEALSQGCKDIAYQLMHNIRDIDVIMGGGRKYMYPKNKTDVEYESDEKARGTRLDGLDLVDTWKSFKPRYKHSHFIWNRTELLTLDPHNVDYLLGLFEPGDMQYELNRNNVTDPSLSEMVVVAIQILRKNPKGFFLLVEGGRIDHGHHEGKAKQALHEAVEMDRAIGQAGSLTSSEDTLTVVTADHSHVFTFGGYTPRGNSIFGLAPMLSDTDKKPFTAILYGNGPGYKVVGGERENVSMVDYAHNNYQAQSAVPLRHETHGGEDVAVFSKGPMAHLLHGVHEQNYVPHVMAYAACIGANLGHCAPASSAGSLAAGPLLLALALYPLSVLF

[10] = target: T3, SUMO-activating enzyme; assay: inhibitors of in vitro SUMOylation cascade, primary screen, biochemical, HTRF, uHTS (AID 2006); format: protein-complex assay
[11] = insulin promoter down-regulators in MIN6 cells, imaging, high-content screening, mouse beta cells (AID 1628); format: functional
[12] = cytotoxicity in MIN6 insulinoma cells, dose response, cytotoxicity control, cell-based, mouse insulinoma (AID 2122); format: functional;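 note: confirmatory high-throughput counterscreen run to flag cytotoxic compounds; mouse MIN-6 beta cells carrying an insulin promoter eGFP reporter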
[13] = target: T5, Rac GTPase-activating protein 1 (Homo sapiens, UniProt Q9H0H5); assay: MgcRacGAP GTPase-activating activity inhibitors, confirmation, biochemical, ADP Hunter fluorescence, primary and confirmatory (AID 624330); format: functional
T5 sequence (Q9H0H5 whole entry): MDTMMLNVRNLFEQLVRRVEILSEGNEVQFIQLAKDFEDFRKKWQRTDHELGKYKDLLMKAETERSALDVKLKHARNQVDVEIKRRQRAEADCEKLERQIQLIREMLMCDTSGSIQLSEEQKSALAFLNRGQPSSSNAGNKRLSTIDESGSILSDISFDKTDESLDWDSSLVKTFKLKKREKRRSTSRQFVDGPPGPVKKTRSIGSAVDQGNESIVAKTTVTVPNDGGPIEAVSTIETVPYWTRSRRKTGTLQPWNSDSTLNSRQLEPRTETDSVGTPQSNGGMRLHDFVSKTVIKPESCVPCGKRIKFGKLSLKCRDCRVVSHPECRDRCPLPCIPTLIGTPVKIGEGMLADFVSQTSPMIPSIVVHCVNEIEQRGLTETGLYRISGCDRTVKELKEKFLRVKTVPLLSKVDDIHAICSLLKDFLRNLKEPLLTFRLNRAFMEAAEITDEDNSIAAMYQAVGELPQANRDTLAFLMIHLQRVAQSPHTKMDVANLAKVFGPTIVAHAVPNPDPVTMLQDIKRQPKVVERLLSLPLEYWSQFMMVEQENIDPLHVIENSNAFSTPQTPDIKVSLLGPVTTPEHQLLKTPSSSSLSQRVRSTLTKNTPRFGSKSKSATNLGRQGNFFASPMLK

[14] = HeLa cell cytotoxicity, dose response, cytotoxicity control for MgcRacGAP inhibitor project (AID 624300); format: functional
[15] = target: T6, Sentrin-specific protease 8 (Homo sapiens, UniProt Q96LD8); format: functional
T6 sequence (Q96LD8 whole entry): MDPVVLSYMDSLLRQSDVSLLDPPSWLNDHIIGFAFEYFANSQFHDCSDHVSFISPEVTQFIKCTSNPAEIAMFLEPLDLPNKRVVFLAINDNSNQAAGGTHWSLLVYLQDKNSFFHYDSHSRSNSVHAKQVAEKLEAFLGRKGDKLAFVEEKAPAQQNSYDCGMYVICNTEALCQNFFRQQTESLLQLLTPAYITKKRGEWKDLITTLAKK

[16] = target: T7, Zinc finger protein mex-5 (Caenorhabditis elegans, UniProt Q9XUB2); assay: MEX-5/TCR-2 RNA interaction inhibitors, dose response, biochemical, C. elegans, fluorescence polarization (AID 1960)
T7 sequence (Q9XUB2 whole entry): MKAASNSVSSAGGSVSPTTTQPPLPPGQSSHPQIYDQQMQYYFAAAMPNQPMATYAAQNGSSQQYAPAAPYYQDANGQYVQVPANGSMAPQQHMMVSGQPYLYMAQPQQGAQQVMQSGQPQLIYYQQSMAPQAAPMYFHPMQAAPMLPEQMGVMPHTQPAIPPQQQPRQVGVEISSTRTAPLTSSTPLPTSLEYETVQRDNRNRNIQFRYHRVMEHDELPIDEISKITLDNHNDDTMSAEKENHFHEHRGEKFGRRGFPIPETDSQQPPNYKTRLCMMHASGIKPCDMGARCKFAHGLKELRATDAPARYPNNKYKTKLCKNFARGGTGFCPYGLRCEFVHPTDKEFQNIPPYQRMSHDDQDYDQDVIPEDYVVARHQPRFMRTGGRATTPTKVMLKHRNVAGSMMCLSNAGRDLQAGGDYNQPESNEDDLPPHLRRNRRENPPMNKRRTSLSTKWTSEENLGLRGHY

[17] = target: T8, RNA-binding protein pos-1 (Caenorhabditis elegans, UniProt G5EF15); assay: inhibitors of POS-1/mex-3 RNA binding, dose response, biochemical, fluorescence polarization (AID 1964);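 note: purified POS-1 fused to maltose binding protein made in E. coli; potency of compounds blocking POS-1 binding to fluorescent RNA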
T8 sequence (G5EF15 whole entry): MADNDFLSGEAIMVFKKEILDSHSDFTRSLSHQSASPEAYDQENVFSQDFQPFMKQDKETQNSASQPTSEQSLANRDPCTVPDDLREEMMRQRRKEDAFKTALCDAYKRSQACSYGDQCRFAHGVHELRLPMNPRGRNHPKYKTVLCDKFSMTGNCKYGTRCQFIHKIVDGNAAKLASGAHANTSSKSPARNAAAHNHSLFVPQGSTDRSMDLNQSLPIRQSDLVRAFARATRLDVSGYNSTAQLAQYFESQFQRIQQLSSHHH

[18] = target: Tyrosyl-DNA phosphodiesterase 2 (Homo sapiens, UniProt O95551); assay: human TDP2 enzyme inhibitors, dose response, biochemical, epi absorbance, IC50 (AID 743297)
Tyrosyl-DNA phosphodiesterase 2, sequence (O95551 whole entry): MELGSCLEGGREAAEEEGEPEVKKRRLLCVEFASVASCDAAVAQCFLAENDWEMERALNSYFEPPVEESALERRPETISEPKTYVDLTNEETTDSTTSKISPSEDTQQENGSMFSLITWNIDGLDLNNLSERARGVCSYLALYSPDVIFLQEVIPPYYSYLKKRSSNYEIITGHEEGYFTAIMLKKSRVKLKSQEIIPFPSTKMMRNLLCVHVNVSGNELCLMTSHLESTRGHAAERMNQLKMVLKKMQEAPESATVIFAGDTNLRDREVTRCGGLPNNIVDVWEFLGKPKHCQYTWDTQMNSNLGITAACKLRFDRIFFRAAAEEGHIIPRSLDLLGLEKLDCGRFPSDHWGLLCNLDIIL

[19] = target: T6, Sentrin-specific protease 8; format: functional; remark: listed apart in the source
[20] = target: SUMO E1/E2 (Homo sapiens, UniProt P63279+Q9UBE0+Q9UBT2); assay: SAR analysis of SUMOylation using HTRF in an in-Vitro dose response assay. [Related pubchem assays (depositor defined):AID2006, AID2011, AID2018, AID2069, AID2658]; format: functional
SUMO E1/E2, sequence (Q9UBE0 whole entry): as the sequence (Q9UBE0 whole entry) above
SUMO E1/E2, sequence (Q9UBT2 whole entry): as the sequence (Q9UBT2 whole entry) above
SUMO E1/E2, sequence (P63279 whole entry): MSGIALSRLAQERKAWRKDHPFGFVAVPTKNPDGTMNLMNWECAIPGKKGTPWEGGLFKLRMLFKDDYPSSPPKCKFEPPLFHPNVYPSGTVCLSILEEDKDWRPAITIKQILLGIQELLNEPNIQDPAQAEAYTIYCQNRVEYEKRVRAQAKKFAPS

[21] = target: Lysine-specific demethylase 4C (Homo sapiens, UniProt Q9H3R0); assay: GASC-1 (JMJD2C) histone demethylase inhibitors, dose response, biochemical, DELFIA europium, cherry-picked samples (AID 488835); format: functional
Lysine-specific demethylase 4C, sequence (Q9H3R0 whole entry): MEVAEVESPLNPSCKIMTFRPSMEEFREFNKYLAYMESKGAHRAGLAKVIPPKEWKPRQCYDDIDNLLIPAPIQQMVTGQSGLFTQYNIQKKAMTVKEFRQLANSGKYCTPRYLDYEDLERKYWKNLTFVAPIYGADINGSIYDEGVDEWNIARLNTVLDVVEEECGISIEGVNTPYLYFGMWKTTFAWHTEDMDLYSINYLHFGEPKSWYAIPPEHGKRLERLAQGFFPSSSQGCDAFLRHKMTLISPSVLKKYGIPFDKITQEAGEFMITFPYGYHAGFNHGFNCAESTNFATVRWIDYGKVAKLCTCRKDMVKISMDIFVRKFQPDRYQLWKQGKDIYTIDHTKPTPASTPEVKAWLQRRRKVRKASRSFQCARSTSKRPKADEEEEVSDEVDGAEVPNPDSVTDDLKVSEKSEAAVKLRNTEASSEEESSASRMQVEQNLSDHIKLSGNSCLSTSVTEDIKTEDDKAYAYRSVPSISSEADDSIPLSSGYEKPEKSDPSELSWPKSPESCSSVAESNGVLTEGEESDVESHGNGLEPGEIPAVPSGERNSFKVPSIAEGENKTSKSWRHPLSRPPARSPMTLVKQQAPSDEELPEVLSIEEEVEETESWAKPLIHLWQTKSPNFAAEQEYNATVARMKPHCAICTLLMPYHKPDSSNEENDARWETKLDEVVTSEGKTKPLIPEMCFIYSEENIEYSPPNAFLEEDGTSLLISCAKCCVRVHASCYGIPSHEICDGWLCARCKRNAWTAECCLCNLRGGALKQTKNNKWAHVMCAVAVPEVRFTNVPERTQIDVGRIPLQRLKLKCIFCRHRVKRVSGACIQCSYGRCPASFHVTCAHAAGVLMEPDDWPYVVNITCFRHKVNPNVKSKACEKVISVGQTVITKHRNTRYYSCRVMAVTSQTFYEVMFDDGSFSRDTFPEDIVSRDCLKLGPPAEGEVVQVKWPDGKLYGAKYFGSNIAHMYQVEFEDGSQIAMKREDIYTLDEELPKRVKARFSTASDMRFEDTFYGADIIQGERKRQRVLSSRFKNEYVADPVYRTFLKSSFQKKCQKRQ

[22] = target: Lysine-specific demethylase 4A (Homo sapiens, UniProt O75164); assay: JMJD2A histone demethylase inhibitors, dose response, selectivity assay for GASC-1 inhibitor project, biochemical, DELFIA europium, cherry-picked samples (AID 488840)
[23] = target: Kappa-type opioid receptor (Homo sapiens, UniProt P41145); assay: SAR analysis of small molecule agonists of the kappa opioid receptor via a luminescent beta-arrestin assay - Set 3. [Related pubchem assays (depositor defined):AID1777, AID1785, AID1786, AID1966, AID2133, AID2136, AID2284, AID2500]; format: functional
Kappa-type opioid receptor, sequence (P41145 whole entry): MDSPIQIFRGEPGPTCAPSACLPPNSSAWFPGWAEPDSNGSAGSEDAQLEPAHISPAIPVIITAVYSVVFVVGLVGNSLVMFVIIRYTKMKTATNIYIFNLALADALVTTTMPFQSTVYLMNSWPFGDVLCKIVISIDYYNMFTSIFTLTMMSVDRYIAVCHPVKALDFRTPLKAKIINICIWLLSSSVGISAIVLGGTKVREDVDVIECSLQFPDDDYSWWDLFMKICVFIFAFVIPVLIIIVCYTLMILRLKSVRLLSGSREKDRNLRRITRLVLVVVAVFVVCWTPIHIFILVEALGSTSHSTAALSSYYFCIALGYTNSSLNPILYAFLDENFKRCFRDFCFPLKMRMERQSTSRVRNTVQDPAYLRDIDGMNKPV

[24] = target: Voltage-dependent T-type calcium channel subunit alpha-1H (Homo sapiens, UniProt O95180); assay: Cav3.2 T-type channel blockers, cell-based, SynthLib3 library, HEK293 Cav3.2, fluorescence (AID 493041); format: functional
[25] = target: T9, G-protein coupled receptor 35 (Homo sapiens, UniProt Q9HC97); assay: SAR analysis of Agonists of the GPR35 Receptor using an Image-Based Assay - Set 2. [Related pubchem assays (depositor defined):AID2013, AID2026]; format: functional
T9 sequence (Q9HC97 whole entry): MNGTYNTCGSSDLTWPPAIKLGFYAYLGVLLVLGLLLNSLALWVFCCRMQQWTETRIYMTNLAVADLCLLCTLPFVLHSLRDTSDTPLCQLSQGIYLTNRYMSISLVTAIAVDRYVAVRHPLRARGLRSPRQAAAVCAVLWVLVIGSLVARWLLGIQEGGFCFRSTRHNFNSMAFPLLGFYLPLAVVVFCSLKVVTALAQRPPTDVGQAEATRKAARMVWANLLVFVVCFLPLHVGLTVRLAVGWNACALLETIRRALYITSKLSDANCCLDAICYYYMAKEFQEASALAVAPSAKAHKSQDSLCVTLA

[26] = target: T10, Cannabinoid receptor 2 (Homo sapiens, UniProt P34972); assay: SAR analysis of antagonists of the Cannabinoid Receptor 2 using an Image-Based Assay. [Related pubchem assays (depositor defined):AID2013, AID2026]; format: functional
T10 sequence (P34972 whole entry): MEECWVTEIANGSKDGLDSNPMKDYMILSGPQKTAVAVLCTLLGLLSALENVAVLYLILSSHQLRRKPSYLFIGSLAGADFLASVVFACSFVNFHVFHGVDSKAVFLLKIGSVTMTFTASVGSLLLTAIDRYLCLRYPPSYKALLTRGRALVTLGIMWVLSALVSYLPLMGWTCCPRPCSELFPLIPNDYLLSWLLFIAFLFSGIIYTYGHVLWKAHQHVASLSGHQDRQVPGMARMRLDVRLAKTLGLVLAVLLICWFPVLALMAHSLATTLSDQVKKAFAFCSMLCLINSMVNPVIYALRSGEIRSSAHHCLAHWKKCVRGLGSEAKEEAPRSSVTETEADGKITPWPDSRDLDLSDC

[27] = target: T10, Cannabinoid receptor 2; assay: SAR analysis of agonists of the Cannabinoid Receptor 2 using an Image-Based Assay. [Related pubchem assays (depositor defined):AID2013, AID2026]; format: functional
[28] = target: T11, Cannabinoid receptor 1 (Homo sapiens, UniProt P21554); assay: SAR analysis of agonists of the Cannabinoid Receptor 1 using an Image-Based Assay - Set 2. [Related pubchem assays (depositor defined):AID2013, AID2026]; format: functional
T11 sequence (P21554 whole entry): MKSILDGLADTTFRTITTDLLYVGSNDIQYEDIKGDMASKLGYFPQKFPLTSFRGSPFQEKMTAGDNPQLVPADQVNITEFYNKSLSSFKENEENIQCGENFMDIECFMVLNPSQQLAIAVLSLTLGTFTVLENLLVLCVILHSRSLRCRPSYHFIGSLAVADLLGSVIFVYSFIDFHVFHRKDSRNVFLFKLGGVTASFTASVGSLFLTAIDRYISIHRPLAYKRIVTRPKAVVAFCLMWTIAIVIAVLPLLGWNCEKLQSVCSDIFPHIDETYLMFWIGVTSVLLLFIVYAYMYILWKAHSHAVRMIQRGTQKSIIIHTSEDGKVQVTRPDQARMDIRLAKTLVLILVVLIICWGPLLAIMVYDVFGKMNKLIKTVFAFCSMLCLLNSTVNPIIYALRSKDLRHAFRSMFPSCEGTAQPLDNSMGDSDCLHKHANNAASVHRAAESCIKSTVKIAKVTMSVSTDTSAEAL

[29] = target: T12, G-protein coupled receptor 55 (Homo sapiens, UniProt Q9Y2T6); assay: GPR55 antagonists blocking LPI-driven arrestin recruitment, primary screen, imaging, U2OS, beta-arrestin-GFP, LPI agonist (AID 2013); format: functional;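 note: antagonist potency measured as reduced agonist-driven arrestin aggregation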
T12 sequence (Q9Y2T6 whole entry): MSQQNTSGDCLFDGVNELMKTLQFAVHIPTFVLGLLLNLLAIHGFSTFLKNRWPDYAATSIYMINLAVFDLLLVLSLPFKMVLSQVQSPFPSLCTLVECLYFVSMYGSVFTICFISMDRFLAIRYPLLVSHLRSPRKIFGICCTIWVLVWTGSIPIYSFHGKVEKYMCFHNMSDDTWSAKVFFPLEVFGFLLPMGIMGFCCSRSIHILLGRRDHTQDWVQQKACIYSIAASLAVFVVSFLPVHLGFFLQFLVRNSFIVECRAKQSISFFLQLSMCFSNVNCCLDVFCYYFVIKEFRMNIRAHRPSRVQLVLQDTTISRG

[30] = target: T12, G-protein coupled receptor 55; assay: GPR55 antagonist potency of analogs, SAR follow-up, imaging, U2OS, beta-arrestin-GFP, LPI agonist, set 2 (AID 2820); format: functional
[31] = target: T9, G-protein coupled receptor 35; assay: SAR analysis of Antagonists of the GPR35 Receptor using an Image-Based Assay - Set 3. [Related pubchem assays (depositor defined):AID2013, AID2026]; format: functional
[32] = target: T11, Cannabinoid receptor 1; assay: SAR analysis of antagonists of the Cannabinoid Receptor 1 using an Image-Based Assay - Set 2. [Related pubchem assays (depositor defined):AID2013, AID2026]; format: functional

CCOC(=O)C1Nc2c(OC)cccc2C2OCCCC12 (configuration not stated)
IC50 [1]: > 100 µM (inactive) | IC50 [2]: > 100 µM (not active) | IC50 [3]: > 100 µM (not active) | IC50 [4]: > 100 µM (inactive)

NC1=NC(=O)/C(=C\c2ccco2)S1
IC50 [5]: 2.89 µM (active) | IC50 [6]: 19.8 µM (active) | IC50 [7]: 67.2 µM (active) | IC50 [8]: 4.59 µM (active) | IC50 [9]: > 100 µM (inactive) | IC50 [10]: 21.7 µM (active)

COc1ccc(-c2nc(-c3ccc(O)cc3O)cs2)cc1OC
IC50 [11]: 4.5 µM (active) | IC50 [12]: 14.1 µM (inactive) | IC50 [13]: 55.1 µM (active) | CC50 [14]: 74.7 µM (active)

Cc1[nH][nH]c(=O)c1C(c1ccc(-c2cccc(C(=O)O)c2)o1)c1c(C)[nH][nH]c1=O
IC50 [15]: 11.9 µM (active) | EC50 [16]: 5.56 µM (active) | EC50 [17]: 18.1 µM (active) | IC50 [18]: > 128 µM (inactive) | IC50 [19]: 17.8 µM (active) | IC50 [20]: 84.1 µM (active)

Cc1ccc(C)c(Cn2c(C(=O)OC(C)C)cc3c2ccn3C)c1
AC50 [21]: 11.6 µM (active) | AC50 [22]: 21.9 µM (active)

FC(F)(F)c1cc(CSc2nnc(-c3ccccn3)n2Cc2cccnc2)ccc1Cl
EC50 [23]: 0.501 µM (active)

O=C(COc1ccc(F)c(Cl)c1)N[C@H]1CCCN(CC2CCCC2)C1
EC50 [24]: 10 µM (active)

Cc1cccc2c1NC(=O)C2(c1ccc(O)cc1)c1ccc(O)cc1
EC50 [25]: > 32 µM (inactive) | IC50 [26]: > 32 µM (inactive) | EC50 [27]: > 32 µM (inactive) | EC50 [28]: > 32 µM (inactive) | IC50 [29]: 2.53 µM (active) | IC50 [30]: 0.125 µM (active) | IC50 [31]: 7.66 µM (active) | IC50 [32]: 31.3 µM (inactive)

Reference: ChEMBL document CHEMBL1201862, “PubChem BioAssay data set” (2004)
